Consider 26 compounds from patent publication EP0427860A1, “NEW IMIDAZOLE DERIVATIVES, PRODUCTION THEREOF, AND USES THEREOF AS MEDICINES” (Kyoto Pharmaceutical Industries, Ltd., priority 1989, dated 1990).

One may read the inhibition as the relative decrease from the control value, in per cent. A word on the IC50: it is the concentration that gives 50% inhibition.

One assay deals with TXB2. Put plainly: Assay of TXB2 in serum after oral administration. Type of assay: in vivo. To be noted: 10 mg/kg orally, male rats, blood taken 1 hour later, incubated at 37° C for 90 minutes, Control 192.5. On the procedure:
Experiment 3 (Assay of TXB2)
The test drug was orally administered to male rats, and 1 hour later, a blood sample was taken from ventral aorta via a polyethylene tube while anesthetized with ether. The blood taken was immediately incubated at 37° C for 90 minutes, and TXB2 was extracted from the serum separated, followed by assay using a [^3H]RIA Kit.

Assay [1] deals with platelet rich plasma (PRP) from rabbits. Put plainly: Inhibitory activities on platelet aggregation (arachidonic acid-induced, transmittance). Type of assay: cell-based. To be noted: test drug 10^-6 M, rabbit PRP, aggregation induced by arachidonic acid (0.1 mM); for inhibition at 1 µM: Oryctolagus cuniculus, Platelet, read-out: Experiment 1 10^-6 M inhibition (%). On the procedure:
Experiment 1 (Inhibitory activities on platelet aggregation)
Platelet aggregation of platelet rich plasma (PRP) from rabbits was measured with the use of an NKK- hematracer (Niko Bioscience). That is, to PRP (200µ 1) was added a test drug or a solvent at 37°C while stirring at 1000 rpm, and an aggregation-inducing agent was added thereto 1 minute later, to measure the changes in transmittance caused by the platelet aggregation. Arachidonic acid (0.1 mM) was used as the aggregation-inducing agent.

In assay [2] the test system is lipoperoxide production in rat brain. Put plainly: Inhibitory activities on lipoperoxide production in rat brain (MDA yield, TBA method). To be noted: rat cerebrum suspension, 37° C for 30 minutes, lipoperoxide measured as MDA yield; read-out: Experiment 2 IC50 value. The class given is biochemical. On the procedure:
Experiment 2 (Inhibitory activities on lipoperoxide production in rat brain)
To male rats weighing about 300 g was intraperitoneally administered 100 mg/kg of sodium pentobar- bital and the rats were exsanguinated to death while anesthetized, after which the cerebrum was extracted. The extracted cerebrum was washed with ice-cooled physiological saline, dried gently, and weighed. Thereto was added 5-fold amount by weight of a 50 mM phosphatesaline buffer (pH 7.4), which was then suspended by an ultradisperser under ice-cooling, followed by centrifugation at 1300 g and at 4 C for 10 minutes. The supernatant was 5-fold diluted with the above buffer, and used as a suspension for measurement.
The suspension to which the test drug had been added at 1/100 volume was incubated at 37° C for 30 minutes, and the amount of the resulting lipoperoxide was measured as an MDA yield. The assay of MDA was conducted by a modified method based on Smith et al., and the absorbance of the TBA reaction product at 532 nm was measured.

Take `O=C(O)CCCC/C=C(\c1ccccc1)c1cccnc1` [CV-4151, reference compound]: in the assay with TXB2, the “TXB2” value was determined as 11.0 ng/mL.

For `CCOC(=O)CCN1CC(CCn2ccnc2)c2ccccc21` (stereo not shown) [Example 1], the inhibition at 1 µM in assay [1] was 40.3%. For the same compound, the concentration for half-maximal inhibition (IC50) in assay [2] was 93 µM.

With `O=C(O)CCN1CC(CCn2ccnc2)c2ccccc21` (stereo not shown) [Example 2, 3-[2-(1 H-Imidazol-1-yl)ethyl]-1-indolinepropionic acid], in assay [1], the inhibition at 1 µM came out at 8.7%.

`CCCCCCOc1ccc2c(c1)C(CCn1ccnc1)CN2CCC(=O)OCC` (stereo not shown) [Example 8, Ethyl 5-hexyloxy-3-[2-(1 H-imidazol-1-yl)ethyl]-1-indolinepropionate]: in assay [1], the inhibition at 1 µM worked out at 20.8%. Further, in assay [2], the 50% inhibitory concentration (IC50) came out at 2.6 µM.

Turning to `CCCCCCOc1ccc2c(c1)C(CCn1ccnc1)CN2CCC(=O)O` (stereo not shown) [Example 9, 5-Hexyloxy-3-[2-(1H-imidazol-1-yl)ethyl]-1-indolinepropionic acid], the inhibition at 1 µM in assay [1] worked out at 28.3%.

As to `CCOC(=O)CCN1CC(CCn2ccnc2)c2cc(OC)ccc21` (stereo not shown) [Example 10], the inhibition at 1 µM in assay [1] was 54.5%. In addition, in assay [2], the half-maximal inhibitory concentration (IC50) is 18.7 µM.

With `COc1ccc2c(c1)C(CCn1ccnc1)CN2CCC(=O)O` (stereo not shown) [Example 11], the inhibition at 1 µM in assay [1] came out at 36%. For the same compound, in assay [2], the concentration for half-maximal inhibition (IC50) came to 73 µM.

Turning to `CCCc1ccc2c(c1)C(CCn1ccnc1)CN2CCC(=O)OCC` (stereo not shown) [Example 12], the inhibition at 1 µM in assay [1] was 19.7%. The IC50 in assay [2] came out at 4.8 µM.

`CCCc1ccc2c(c1)C(CCn1ccnc1)CN2CCC(=O)O` (stereo not shown) [Example 13]: in assay [1], the inhibition at 1 µM turned out to be 10.4%. Also, in assay [2], the half-inhibitory concentration (IC50) amounted to 21.9 µM.

Regarding `CCOC(=O)CCN1CC(CCn2ccnc2)c2cc(C(C)C)ccc21` (stereo not shown) [Example 14], the inhibition at 1 µM in assay [1] worked out at 14.5%. Also, the IC50 in assay [2] is 6 µM.

`CC(C)c1ccc2c(c1)C(CCn1ccnc1)CN2CCC(=O)O` (stereo not shown) [Example 15]: the inhibition at 1 µM in assay [1] stood at 1.6%. In addition, the IC50 in assay [2] came out at 24.8 µM.

For `CCOC(=O)CCN1CC(CCn2ccnc2)c2cc(C3CCCCC3)ccc21` (stereo not shown) [Example 16], the inhibition at 1 µM in assay [1] came to 2.1%.

In the case of `O=C(O)CCN1CC(CCn2ccnc2)c2cc(C3CCCCC3)ccc21` (stereo not shown) [Example 17], in assay [1], the inhibition at 1 µM was 15.7%. Moreover, in assay [2], the IC50 was determined as 2.05 µM.

With `CCCOc1ccc2c(c1)C(CCn1ccnc1)CN2CCC(=O)OCC` (stereo not shown) [Example 18], the inhibition at 1 µM in assay [1] was 21.8%.

For `CCCOc1ccc2c(c1)C(CCn1ccnc1)CN2CCC(=O)O` (stereo not shown) [Example 19], the inhibition at 1 µM in assay [1] worked out at 3.6%. Besides, the 50% inhibitory concentration (IC50) in assay [2] is 19.4 µM.

For `CCCCCOc1ccc2c(c1)C(CCn1ccnc1)CN2CCC(=O)OCC` (stereo not shown) [Example 20], the inhibition at 1 µM in assay [1] stood at 45.2%. The concentration for half-maximal inhibition (IC50) in assay [2] was 2.05 µM. Besides, in the assay on TXB2, the “TXB2” value is 5.1 ng/mL.

On to `CCCCCOc1ccc2c(c1)C(CCn1ccnc1)CN2CCC(=O)O` (stereo not shown) [Example 21], for which the inhibition at 1 µM in assay [1] is 5.5%. In addition, the IC50 in assay [2] came out at 1.84 µM. Moreover, in the assay on TXB2, the “TXB2” value is 6.7 ng/mL.

For `CCCCCCCOc1ccc2c(c1)C(CCn1ccnc1)CN2CCC(=O)OCC` (stereo not shown) [Example 22], the inhibition at 1 µM in assay [1] is 37%.

Take `CCCCCCCOc1ccc2c(c1)C(CCn1ccnc1)CN2CCC(=O)O` (stereo not shown) [Example 23]: in assay [1], the inhibition at 1 µM is 11.5%. Further, the IC50 in assay [2] is 0.25 µM.

With `CCCCCCCCCOc1ccc2c(c1)C(CCn1ccnc1)CN2CCC(=O)OCC` (stereo not shown) [Example 26], in assay [1], the inhibition at 1 µM came to 40.5%.

With `CCCCCCCCCOc1ccc2c(c1)C(CCn1ccnc1)CN2CCC(=O)O` (stereo not shown) [Example 27], the inhibition at 1 µM in assay [1] amounted to 27%. Further, the IC50 in assay [2] worked out at 0.26 µM. Further, the “TXB2” value in the assay with TXB2 amounted to 4.8 ng/mL.

In the case of `CCCCCCCCCCCCOc1ccc2c(c1)C(CCn1ccnc1)CN2CCC(=O)O` (stereo not shown) [Example 29], in assay [1], the inhibition at 1 µM came to 12.1%. Besides, the half-inhibitory concentration (IC50) in assay [2] worked out at 0.24 µM.

With `C=CCOc1ccc2c(c1)C(CCn1ccnc1)CN2CCC(=O)OCC` (stereo not shown) [Example 30], in assay [1], the inhibition at 1 µM was determined as 28.4%.

As to `C=CCOc1ccc2c(c1)C(CCn1ccnc1)CN2CCC(=O)O` (stereo not shown) [Example 31], the inhibition at 1 µM in assay [1] is 0.2%. Also, the IC50 in assay [2] is 20.3 µM.

Take `O=C(O)/C=C/c1ccc(Cn2ccnc2)cc1` [OKY-046, reference compound]: the inhibition at 1 µM in assay [1] was determined as 4%.

Consider “Ethyl 3-[2-(1 H-imidazol-1-yl)ethyl]-1-indolineacetate [Example 5]”, for which, in assay [1], the “Experiment 1 10^-6 M inhibition (%)” value came out at 20.3%. For the same compound, the half-inhibitory concentration (IC50) in assay [2] was found to be 25 µM.
